Measurements as given in US20160052918A1, “SMALL COMPOUNDS TARGETING TACC3” (JAPANESE FOUNDATION FOR CANCER RESEARCH, priority 2012, published 2016).
Values after ≈ are worked out from the molar mass of the structure shown.

Legend:
Assay type in all cases: cell-based
[1] = system: SKOV-3 cells expressing EGFP-α-tubulin; test: Mitotic arrest of synchronized EGFP-α-tubulin-expressing SKOV-3 cells, time-lapse single-cell analysis
Experimental: The EGFP-α-tubulin-expressing cells used in the assay will be described. In order to observe mitosis under a fluorescence microscope, cells expressing EGFP-α-tubulin (fusion protein of a fluorescent protein, EGFP, and α-tubulin) were prepared. A system observable under a fluorescence microscope without cell fixation was prepared.
Ovary cancer cells SKOV-3 were cultured in an RPMI1640 medium supplemented with 5% fetal bovine serum. Stable cells expressing EGFP-α-tubulin were transduced by lentiviral transduction using pLenti4/V5-DEST vectors (Registered Trade Mark) (manufactured by Invitrogen Corp.) and selected by the FACS sorting of infected cells using Zeocin (Registered Trade Mark) and subsequent FACSAria (Registered Trade Mark) (Becton, Dickinson and Company).
The compounds NPD2448, NPD2568, NPD3574, NPD4089, and C7—O-propylated NPD3574 were each added at varying concentrations to the culture medium of SKOV-3 cells expressing EGFP-α-tubulin and analyzed for their effect on cell division.
The SKOV-3 cells expressing EGFP-α-tubulin were synchronized by thymidine block to analyze the effect on cell division of each compound. As shown in the upper part of FIG. 2, each compound was added to the culture medium after the 1st thymidine block. After synchronization by the second thymidine block, images were taken every 2 minutes for 3 days using Leica AF6000 and ×20/0.5 Plan Fluotar objective lens in a phenol red-free RPMI1640 medium supplemented with 5% fetal bovine serum. These time-lapse images were analyzed using ImageJ 1.42a software, and the time of mitotic arrest was determined by visual judgment. The duration of mitosis was manually determined from the image sequences of at least 50 cells.
The mitotic arrest (EC50=50% arrest rate) was tested by the microscopic analysis of individual single cells.
EGFP-α-tubulin-expressing SKOV-3 cells synchronized by double thymidine block in the same way as in Example 2 were treated with each synthesized compound and subjected to time-lapse photography for 3 days. At least 50 cells were observed. The time of arrest of each cell was calculated, and EC50 was determined therefrom.
EGFP-α-tubulin-expressing SKOV-3 cells supplemented with each of SPL-A and SPL-B at varying concentrations were synchronized by double thymidine block in the same way as in Example 2. Analysis based on single cells was conducted by time-lapse photography. The duration of mitosis was measured from the image sequences of at least 50 cells.

[2] = system: mouse lymphoma cell line; test: Cell death of lymphoma (survival rate, WST-1); details: 72 h, IC50=50% survival rate, three days
Experimental: The synthesized compounds were analyzed for their activity against cell death induction using a mouse lymphoma cell line (see Non Patent Literature 12), which was a cell line derived from thymic lymphoma developed in p53KO mouse.
The number of the lymphoma cells was adjusted to 1.2×10^5 cells/ml. The cells were inoculated at a concentration of 50 μl/well to a 96-well culture dish. A medium containing each RT compound as the novel compound of the present invention at twice the concentration of 50 μl was further added thereto (final concentration: 0.021 to 13.3 μg/ml). Three days after cultivation, the survival rate was calculated using WST-1 reagent (manufactured by F. Hoffmann-La Roche, Ltd.).

[3] = system: SKOV-3 cells expressing EGFP-α-tubulin; test: Cell fate determination by time-lapse photography, SKOV-3; details: 13.3 μg/ml SPL-A or 2.7 μg/ml SPL-B
Experimental: (§1) The cells used were SKOV-3 cells and OVCAR-3 cells expressing EGFP-α-tubulin.
(§2) The OVCAR-3 cells expressing EGFP-α-tubulin were obtained using the same procedure as that for the SKOV-3 cells expressing EGFP-α-tubulin. The cells supplemented with each of SPL-A and SPL-B were synchronized by double thymidine block in the same way as in Example 2. Images were obtained by time-lapse photography and analyzed. The cells of each line were treated with 13.3 μg/ml SPL-A or 2.7 μg/ml SPL-B. The cell fate was manually determined from the image sequence of at least 50 cells with the time point of nuclear envelope breakdown defined as 0.

[4] = system: OVCAR-3 cells expressing EGFP-α-tubulin; test: Cell fate determination by time-lapse photography, OVCAR-3; details: 13.3 μg/ml SPL-A or 2.7 μg/ml SPL-B
Experimental: as §1, §2

[5] = system: SKOV-3 cells; test: Abnormal spindle morphology by immunostaining, SKOV-3; details: 24 hours
Experimental: (§3) SPL-A was added at each concentration to the SKOV-3 or OVCAR-3 cells. Twenty four hours after incubation, the cells were fixed and immunostained using antibodies against cell division-related substances such as α-tubulin described below. The percentage of spindle morphology was determined from at least 50 cells. The data was indicated by a mean of three independent experiments and SD.
(§4) The immunostaining was carried out by the following method: the cells were fixed in 3.7% PFA, methanol, or 10% TCA on a chamber slide, then permeabilized with 0.2% Triton-X100 in PBS, and incubated with primary antibodies. A monoclonal antibody (DM1A) against α-tubulin and monoclonal antibodies (DQ19 and GTU-88) against γ-tubulin were obtained from Sigma-Aldrich Corp. An anti-centrin 2 antibody (sc-27793) was purchased from Santa Cruz Biotechnology, Inc. Fluorescent labelled goat anti-mouse IgG (Cappel) and Cy3 labelled goat anti-rabbit IgG (Millipore) antibodies were used as secondary antibodies. DNA was detected using 4,6-diamidino-2-phenylindole (DAPI). Images were obtained using Leica DM6000B microscope equipped with ×100/1.40-0.70 PlanApo objective lens and Z-projections.
(§5) FIGS. 5A and B show the results of analyzing spindle morphology. The percentage of spindle morphology was indicated by the percentage (%) of normal, multipolar, disorganized, or monopolar spindles to the number of mitotic cells. […]

[6] = system: OVCAR-3 cells; test: Abnormal spindle morphology by immunostaining, OVCAR-3; details: 24 hours
Experimental: as §3, §4, §5

[7] = system: cancer cell lines SKOV-3 and OVCAR-3; test: G2/M-phase cells by PI flow cytometry, cancer cell lines; details: two cancer cell lines, 24 hours, FIG. 10
Experimental: (§6) (A) Two cancer cell lines SKOV-3 and OVCAR-3 and three normal cell lines hTERT-RPE, MCF 10A, and 184B5 were treated with SPL-A at concentrations shown in the abscissa of FIG. 10A for 24 hours, then stained with propidium iodide (PI), and analyzed by flow cytometry.
(§7) The same two cancer cell lines and three normal cell lines as in (A) were treated with each of paclitaxel, vincristine, and vinblastine acting on microtubule formation, S-trityl-L-cysteine (STLC) and SB743921 acting on proteins involved in mitosis, an Aurora kinase inhibitor VX680, and a polo-like kinase (PLK) inhibitor BI2536 at concentrations shown in the abscissa of FIG. 10B for 24 hours, then stained with propidium iodide (PI), and analyzed by flow cytometry.

[8] = system: normal cell lines hTERT-RPE, MCF 10A, and 184B5; test: G2/M-phase cells by PI flow cytometry, normal cell lines; details: 3 normal cell lines, 24 hours, FIG. 10
Experimental: as §6, §7

O=c1cc(-c2cc3ccccc3oc2=O)c2ccc(O)c(CN3CCC(CCO)CC3)c2o1 [RT-011]
concentration at which mitotic arrest was induced ([1]; Example 5, FIG. 3, final concentrations): 2.667 µg/mL | EC50 ([1]; Homo sapiens, SK-OV-3, 72 h, mitotic arrest, EC50=50% arrest rate, double thymidine block, time-lapse 3 days, at least 50 cells, read-out: SKOV3 EC50): 0.79 µg/mL (≈ 1.77 µM) | inhibitory effects on cell growth ([1]; summary of Table 2 (SKOV-3 mitotic arrest and lymphoma cell death)): remarkable inhibitory effects on cell growth | IC50 [2]: 2.15 µg/mL (≈ 4.8 µM) | cell fate of most cells [3]: mitotic slippage | cell fate of most cells [4]: mitotic death | percentage of cells with multipolar spindles ([5]; SKOV-3, 1.25 μg/ml): 53.3% | percentage of cells with disorganized spindles ([5]; SKOV-3, 5 μg/ml): 56.7% | percentage of cells with multipolar spindles ([6]; OVCAR-3, 1.25 μg/ml): 44.0% | percentage of cells with disorganized spindles ([6]; OVCAR-3, 2.5 μg/ml): 57.3% | percentage of G2/M-phase cells / cell division [7]: increased the percentage of G2/M-phase cells in a concentration-dependent manner | inhibitory effect on cell division [8]: no inhibitory effect on cell division
